This assay concerns cerebellar organotypic cultures. The assay is described as follows: Remyelination in lysolecithin-demyelinated cerebellar slices (qPCR of MBP, PLP, MOG). To be noted: 10 µM, 10-day incubation post-lysolecithin, vs 0.1% DMSO. Format: cell-based, rat. (In general: Real-time PCR tracks product formation cycle by cycle.)

Molecules are shown by their SMILES.

Protocol: In brief, after careful dissection to keep the tissue intact, cerebella of postnatal Days 4 to7 wild-type mouse pups were sectioned at 400 -µm thickness using a Leica VT1000S vibratome. […] When the slices were firmly attached, fresh medium was added to cover the tissue, and the cultures were maintained under these conditions for 4 days. […] Treatments with compounds were initiated at this point, and the cultures maintained for 4 to 10 additional days. Demyelination–remyelination was assessed by real-time polymerase chain reaction (PCR).
Total RNA was isolated from single-cell cultures or tissue explants using Tri-Zol reagent (Gibco). cDNA was generated from 1 to 3 µg of total RNA by Retrotranscriptase II (Gibco) reaction, and the selected transcripts were detected and amplified by quantitative RT-PCR in an Applied Biosystems (Grand Island, NY) 7500 fast qPCR machine, following the manufacturer’s instructions.

Consider `C[C@@H](N)[C@H]1CC[C@H](C(=O)Nc2ccncc2)CC1.Cl.Cl` [Y0503, trans-4-[(1 R)-1-aminoethyl]-N-4-pyridinylcyclohexanecarboxamide dihydrochloride], for which the “Expression of MBP, PLP, MOG mRNAs in demyelinated cerebellar slices (qPCR)” value is given as “significant increase”.

Source of the values: paper PMC4189421, “Induction of Oligodendrocyte Differentiation and In Vitro Myelination by Inhibition of Rho-Associated Kinase” (ASN NEURO, 2014).
